The conditions of data set [1]: 423 de novo kidney allograft recipients; cited from earlier work.
Data set [2] can be described thus: pH-dependent solubility of the drug. It counts as physicochemical. From the text:
The present invention provides a stable extended release single unit dosage form composition such as matrix tablets which could provide substantially linear drug release for a prolonged duration of time during the transit through varying pHs of the GIT.
The prior art formulation approaches lead to a pharmaceutical composition which has a suitable fast disintegration time but not necessarily a suitable dissolution rate of the active agent under acidic conditions, i.e. a multiparticulate composition in the form of a tablet with an extragranularly added disintegrant will rapidly disintegrate into granules but the dissolution of the drug substance from the composition and/or the disintegrated composition under acidic conditions may be unsuitable and, low due to the solubility properties of the active agent itself. The availability of an active agent with respect to absorption, i.e. entrance into the circulatory system, is dependant on the presence of the active agent in dissolved form as it is generally accepted that only dissolved substances are capable of passing the mucous membranes in the gastro-intestinal tract. Therefore, it is important that the dissolution of the active agent is suitably fast even under acidic conditions in order to enable absorption from the stomach so that the absorption of the active agent is continuous throughout the GIT, and the bioavailability is not compromised.

The conditions of data set [3]: cited from earlier work.
Setting [4] is: controlled de novo and maintenance renal studies.

Where two headings read alike, the source gives them in different places.

For the compound `COc1c(C)c2c(c(O)c1C/C=C(\C)CCC(=O)O)C(=O)OC2` [MPS, mycophenolate sodium], the “incidence of GI adverse events” value in data set [1] is 79.8%. In addition, the solubility result in data set [2] (pH above 6.0) was “high solubility”. For the same compound, in data set [2] (pH below 6.0), the solubility entry is on record as “poor solubility”. Further, the “solubility in an acidic medium” value in data set [2] (pH of from about 1 to about 3) is given as “substantially low solubility”. In addition, in data set [3] (setting [4]), the “Adverse Events (%): Anemia” value was 21.9%, the “Adverse Events (%): Constipation” value is listed as 39.5%, the “Adverse Events (%): Diarrhoea” value is reported as 23.5% and the “Adverse Events (%): Dyspepsia” value is on record as 19%. In data set [3] (setting [4]), the “Adverse Events (%): Insomnia” value is recorded as 23.8%, the “Adverse Events (%): Leukopenia” value is reported as 20.5%, the “Adverse Events (%): Nausea” value is 27.1% and the “Adverse Events (%): Urinary Tract Infection” value was 33.3%. In addition, the “Adverse Events (%): Vomiting” value in data set [3] (setting [4]) is 23%. Moreover, the “Adverse Events (%): CMV infections” value in data set [3] (in vivo) was 18.1%.
Regarding `COc1c(C)c2c(c(O)c1C/C=C(\C)CCC(=O)OCCN1CCOCC1)C(=O)OC2` [MMF, mycophenolate mofetil], the “incidence of GI adverse events” value in data set [1] is 77.1%. Moreover, in data set [3] (setting [4]), the “Adverse Events (%): Anemia” value is recorded as 21.6%, the “Adverse Events (%): CMV infections” value is 20.2%, the “Adverse Events (%): Constipation” value is on record as 38.0% and the “Adverse Events (%): Diarrhoea” value was 24.8%. In data set [3] (setting [4]), the “Adverse Events (%): Dyspepsia” value is given as 22.5%, the “Adverse Events (%): Insomnia” value is given as 23.5%, the “Adverse Events (%): Leukopenia” value is given as 19.2% and the “Adverse Events (%): Nausea” value is reported as 29.1%. Further, in data set [3] (setting [4]), the “Adverse Events (%): Urinary Tract Infection” value is 29.1% and the “Adverse Events (%): Vomiting” value is 20%.

These data come from patent US9642808B2, “Extended release compositions comprising mycophenolate sodium and processes thereof” (PANACEA BIOTECH LIMITED, priority 2007, dated 2017).
